Results as given in US6878722B2, “Substituted cycloalkyl P1′ hepatitis C virus inhibitors” (Bristol-Myers Squibb Company, priority 2002, dated 2005).

How the values were obtained:
Assay type in all cases: biochemical
[1] = biological target: T1, HCV NS3/4A protease complex (H77C strain, 1a genotype) (Hepatitis C virus genotype 1a, UniProt P27958, C1454S); assay: Recombinant HCV NS3/4A protease complex FRET peptide assay, H77C strain
T1 construct: DNA encoding the recombinant HCV NS3/4A protease complex (amino acids 1027 to 1711) for these strains; inferred from the pET21b vector and Ni-NTA purification; made in house; host or cells: Escherichia coli BL21 (DE3), pET21b
Text: (§1) The purpose of this in vitro assay was to measure the inhibition of HCV NS3 protease complexes, derived from the BMS, H77C or J416S strains, as described below, by compounds of the present invention.
(§2) Serum from an HCV-infected patient was obtained from Dr. T. Wright, San Francisco Hospital. An engineered full-length cDNA (compliment deoxyribonucleic acid) template of the HCV genome (BMS strain) was constructed from DNA fragments obtained by reverse transcription-PCR (RT-PCR) of serum RNA (ribonucleic acid) and using primers selected on the basis of homology between other genotype 1a strains. […] The infectious clones, H77C (1a genotype) and J4L6S (1b genotype) were obtained from R. Purcell (NIH) and the sequences are published in Genbank (AAB67036, see Yanagi,M., Purcell,R. H., Emerson,S. U. and Bukh,J. Proc. Natl. Acad. Sci. U.S.A. 94(16),8738-8743 (1997); AF054247, see Yanagi,M., St Claire,M., Shapiro,M., Emerson,S. U., Purcell,R. H. and Bukh,J, Virology 244 (1), 161-172. (1998)).
(§3) The BMS, H77C and J4L6S strains were used for production of recombinant NS3/4A protease complexes. DNA encoding the recombinant HCV NS3/4A protease complex (amino acids 1027 to 1711) for these strains were manipulated as described by P. Gallinari et al. (see Gallinari P, Paolini C, Brennan D, Nardi C, Steinkuhler C, De Francesco R. Biochemistry. 38(17):5620-32, (1999)). […]

[2] = tested on: human pancreatic chymotrypsin; assay: Specificity assay, chymotrypsin; details: 2 hr pre-incubation
Protocol: The specificities of compounds of the present invention were determined against a variety of serine proteases: human sputum elastase (HS), porcine pancreatic elastase (PPE) and human pancreatic chymotrypsin and one cysteine protease: human liver cathepsin B. In all cases a 96-well plate format protocol using colorimetric p-nitroaniline (pNA) substrate specific for each enzyme was used as described previously (Patent WO 00/09543) with some modifications to the serine protease assays. All enzymes were purchased from Sigma while the substrates were from Bachem.
Each assay included a 2 hr enzyme-inhibitor pre-incubation at room temperature followed by addition of substrate and hydrolysis to ˜30% conversion as measured on a Spectramax Pro microplate reader. Compound concentrations varied from 100 to 0.4 μM depending on their potency. […]
The percentage of inhibition was calculated using the formula: [1−((UVinh−UVblank)/(UVctl−UVblank))]×100 […]

[3] = biological target: T2, HCV NS3/4A protease complex (J4L6S strain, 1b genotype) (Hepatitis C virus genotype 1b, UniProt O92972, C1454S/C1711G); assay: Recombinant HCV NS3/4A protease complex FRET peptide assay, J4L6S strain
T2 construct: DNA encoding the recombinant HCV NS3/4A protease complex (amino acids 1027 to 1711) for these strains; inferred from the pET21b vector and Ni-NTA purification; made in house; host or cells: Escherichia coli BL21 (DE3), pET21b
Text: as §1, §2, §3

[4] = biological target: T3, HCV NS3/4A protease complex (BMS strain, genotype 1a) (Hepatitis C virus genotype 1a, UniProt P27958, C1454S); assay: Recombinant HCV NS3/4A protease complex FRET peptide assay, BMS strain
T3 construct: DNA encoding the recombinant HCV NS3/4A protease complex (amino acids 1027 to 1711) for these strains; inferred from the pET21b vector and Ni-NTA purification; made in house; host or cells: Escherichia coli BL21 (DE3), pET21b
Procedure, shortened: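 Recombinant NS3/4A complex (aa 1027–1711) with C-terminal three-lysine tail, C1711G and C1454S, expressed in E. coli BL21(DE3) and purified by Ni-NTA then Superdex-S200. Inhibition of the complex from each strain measured in vitro by FRET peptide cleavage.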

T3 sequence (P27958 1658-1714, looked up, stated change not applied): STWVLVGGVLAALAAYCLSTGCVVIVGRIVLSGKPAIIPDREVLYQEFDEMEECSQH
T3 sequence (P27958 1027-1657, looked up, stated change not applied): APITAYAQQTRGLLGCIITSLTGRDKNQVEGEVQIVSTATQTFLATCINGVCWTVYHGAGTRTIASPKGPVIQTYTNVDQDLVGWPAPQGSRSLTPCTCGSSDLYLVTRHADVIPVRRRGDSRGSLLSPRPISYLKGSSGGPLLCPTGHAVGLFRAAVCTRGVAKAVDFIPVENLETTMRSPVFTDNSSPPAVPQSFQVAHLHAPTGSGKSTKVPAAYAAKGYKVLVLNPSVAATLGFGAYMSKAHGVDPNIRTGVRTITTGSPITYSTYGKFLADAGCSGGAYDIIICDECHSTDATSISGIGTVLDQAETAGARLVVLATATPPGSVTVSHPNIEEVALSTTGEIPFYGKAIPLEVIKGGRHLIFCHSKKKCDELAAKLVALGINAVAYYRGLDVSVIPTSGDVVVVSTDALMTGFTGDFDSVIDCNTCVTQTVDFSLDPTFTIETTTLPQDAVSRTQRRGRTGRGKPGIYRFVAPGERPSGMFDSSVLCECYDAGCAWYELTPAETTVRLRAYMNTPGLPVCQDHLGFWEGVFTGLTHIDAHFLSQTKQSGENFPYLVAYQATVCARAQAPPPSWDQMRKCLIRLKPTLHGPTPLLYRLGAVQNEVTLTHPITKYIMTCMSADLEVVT
T2 sequence (O92972 1027-1711 C1454S/C1711G, one chain of several): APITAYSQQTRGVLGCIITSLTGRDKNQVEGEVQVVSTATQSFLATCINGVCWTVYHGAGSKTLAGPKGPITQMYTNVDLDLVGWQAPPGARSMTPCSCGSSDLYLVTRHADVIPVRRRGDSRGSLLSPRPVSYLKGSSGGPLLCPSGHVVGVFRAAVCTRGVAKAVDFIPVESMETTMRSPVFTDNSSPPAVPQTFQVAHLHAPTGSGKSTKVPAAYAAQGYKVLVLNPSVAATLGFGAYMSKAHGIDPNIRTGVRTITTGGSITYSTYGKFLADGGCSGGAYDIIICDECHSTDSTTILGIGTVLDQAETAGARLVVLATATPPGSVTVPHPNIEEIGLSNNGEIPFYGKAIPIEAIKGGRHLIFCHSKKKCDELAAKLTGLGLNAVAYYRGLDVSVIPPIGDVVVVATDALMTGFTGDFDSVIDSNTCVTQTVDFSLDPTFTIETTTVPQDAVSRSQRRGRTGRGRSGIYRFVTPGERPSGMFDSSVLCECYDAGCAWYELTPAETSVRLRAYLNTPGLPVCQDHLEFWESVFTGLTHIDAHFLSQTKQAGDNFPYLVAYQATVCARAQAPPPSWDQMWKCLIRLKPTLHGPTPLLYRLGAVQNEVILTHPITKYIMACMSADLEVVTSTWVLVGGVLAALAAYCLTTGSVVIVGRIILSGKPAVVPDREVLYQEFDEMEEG
T1 sequence (P27958 1027-1657 C1454S): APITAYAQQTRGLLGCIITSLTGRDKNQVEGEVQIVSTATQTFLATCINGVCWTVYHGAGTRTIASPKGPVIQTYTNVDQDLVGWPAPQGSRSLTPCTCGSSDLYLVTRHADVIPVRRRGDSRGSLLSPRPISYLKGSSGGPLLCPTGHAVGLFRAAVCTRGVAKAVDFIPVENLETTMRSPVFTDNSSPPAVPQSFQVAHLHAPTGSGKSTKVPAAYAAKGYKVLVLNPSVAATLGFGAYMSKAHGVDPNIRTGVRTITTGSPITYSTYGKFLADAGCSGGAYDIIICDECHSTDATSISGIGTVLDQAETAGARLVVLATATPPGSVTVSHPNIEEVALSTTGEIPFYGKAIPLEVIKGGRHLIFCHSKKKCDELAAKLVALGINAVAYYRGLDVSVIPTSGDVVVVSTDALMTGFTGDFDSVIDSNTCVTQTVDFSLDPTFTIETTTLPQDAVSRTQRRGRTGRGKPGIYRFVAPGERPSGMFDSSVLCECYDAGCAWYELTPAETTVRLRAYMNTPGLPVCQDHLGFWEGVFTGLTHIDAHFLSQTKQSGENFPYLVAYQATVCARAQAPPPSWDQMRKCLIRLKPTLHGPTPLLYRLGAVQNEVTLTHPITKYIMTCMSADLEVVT
T1 sequence (P27958 1658-1714 partner, looked up, stated change not applied): as the sequence (P27958 1658-1714, looked up, stated change not applied) above

For C=CC1C[C@]1(NC(=O)[C@@H]1C[C@@H](Oc2cc(-c3ccccc3)nc3cc(OC)ccc23)CN1C(=O)[C@@H](NC(=O)OC(C)(C)C)C(C)(C)C)C(=O)NS(=O)(=O)C1(C)CC1 (stereo in doubt) [Compound 1, (1-{4-(7-Methoxy-2-phenylquinolin-4-yloxy)-2-[1-(1-methylcyclopropanesulfonylaminocarbonyl)-2-vinylcyclopropylcarbamoyl]pyrrolidine-1-carbonyl}-2,2-dimethylpropyl)carbamic acid tert-butyl ester], the IC50 [1] was 1.2 nM, the IC50 [2] was > 100000 nM and the IC50 [3] was 1.1 nM. For the same compound, the IC50 ([4]; IC50 against the NS3/4A BMS strain in the enzyme assay, BMS strain) was 1.8 nM and the IC50 ([4]; IC50 range, NS3/4A BMS Strain) was < 50 nM.
